The numbers were not newly measured in PubChem BioAssay AID1259409 (Chemical Carcinogenesis Research Information System (CCRIS), 2018), which cites them from elsewhere.

This data set relates to rodent chemically induced tumor inhibition, incidence and multiplicity. Put plainly: CCRIS tumor inhibitor studies. The note with it: Dose [Inhibitor]: 0. An excerpt: The CCRIS database contains chemical records with carcinogenicity, mutagenicity, tumor promotion, and tumor inhibition test results. It was developed by the National Cancer Institute (NCI). Data are derived from studies cited in primary journals, current awareness tools, NCI reports, and other sources. Test results have been reviewed by experts in carcinogenesis and mutagenesis.
CCRIS provides historical information from the years 1985 - 2011. It is no longer updated.
This is an archive assay for CCRIS tumor inhibitor studies.

Regarding `C=Cc1ccc2ccc3cccc4ccc1c2c34`, the “tumour outcome (control, treated, inhibition, significance)” value was 100%, 100%, 0%, not significant (Carcinogen: 7,12-DIMETHYLBENZ[A]ANTHRACENE, 57-97-6, 44 NMOL IN 0.2 ML ACETONE APPLIED TO BACK ONCE 5 MIN PRIOR TO CARCINOGEN DOSE (STUDY DURATION: 26 WK), Route [Inhibitor]: DERMAL, Species: MOUSE, Strain/Sex: SENCAR/FEMALE, Target Tissue: Type of Lesion: SKIN: PAPILLOMA, Dose [Carcinogen]: 10 NMOL IN 0.2 ML ACETONE APPLIED TO BACK ONCE.); 100%, 92%, 8%, not calculated (Carcinogen: 7,12-DIMETHYLBENZ[A]ANTHRACENE, 57-97-6, 440 NMOL IN 0.2 ML ACETONE APPLIED TO BACK ONCE 5 MIN PRIOR TO CARCINOGEN DOSE (STUDY DURATION: 26 WK), Route [Inhibitor]: DERMAL, Species: MOUSE, Strain/Sex: SENCAR/FEMALE, Target Tissue: Type of Lesion: SKIN: PAPILLOMA, Dose [Carcinogen]: 10 NMOL IN 0.2 ML ACETONE APPLIED TO BACK ONCE.); 100%, 68%, 32%, not calculated (Carcinogen: 7,12-DIMETHYLBENZ[A]ANTHRACENE, 57-97-6, 4400 NMOL IN 0.2 ML ACETONE APPLIED TO BACK ONCE 5 MIN PRIOR TO CARCINOGEN DOSE (STUDY DURATION: 20 WK), Route [Inhibitor]: DERMAL, Species: MOUSE, Strain/Sex: SENCAR/FEMALE, Target Tissue: Type of Lesion: SKIN: PAPILLOMA, Dose [Carcinogen]: 10 NMOL IN 0.2 ML ACETONE APPLIED TO BACK ONCE.); 100%, 79%, 21%, not calculated (Carcinogen: 7,12-DIMETHYLBENZ[A]ANTHRACENE, 57-97-6, 4400 NMOL IN 0.2 ML ACETONE APPLIED TO BACK ONCE 5 MIN PRIOR TO CARCINOGEN DOSE (STUDY DURATION: 26 WK), Route [Inhibitor]: DERMAL, Species: MOUSE, Strain/Sex: SENCAR/FEMALE, Target Tissue: Type of Lesion: SKIN: PAPILLOMA, Dose [Carcinogen]: 10 NMOL IN 0.2 ML ACETONE APPLIED TO BACK ONCE.); 100%, 24%, 76%, not calculated (Carcinogen: 7,12-DIMETHYLBENZ[A]ANTHRACENE, 57-97-6, 44000 NMOL IN 0.2 ML ACETONE APPLIED TO BACK ONCE 5 MIN PRIOR TO CARCINOGEN DOSE (STUDY DURATION: 20 WK), Route [Inhibitor]: DERMAL, Species: MOUSE, Strain/Sex: SENCAR/FEMALE, Target Tissue: Type of Lesion: SKIN: PAPILLOMA, Dose [Carcinogen]: 10 NMOL IN 0.2 ML ACETONE APPLIED TO BACK ONCE.); 100%, 95%, 5%, not calculated (Carcinogen: BENZO[A]PYRENE, 50-32-8, 2200 NMOL IN 0.2 ML ACETONE APPLIED TO BACK ONCE 5 MIN PRIOR TO CARCINOGEN DOSE (STUDY DURATION: 26 WK), Route [Inhibitor]: DERMAL, Species: MOUSE, Strain/Sex: SENCAR/FEMALE, Target Tissue: Type of Lesion: SKIN: PAPILLOMA, Dose [Carcinogen]: 200 NMOL IN 0.2 ML ACETONE APPLIED TO BACK ONCE.). Besides, the “tumour outcome (control, treated, inhibition, significance)” value is recorded as 75%, 64%, 15%, not calculated (Carcinogen: BENZO[A]PYRENE, 50-32-8, 4400 NMOL IN 0.2 ML ACETONE APPLIED TO BACK ONCE 5 MIN PRIOR TO CARCINOGEN DOSE (STUDY DURATION: 20 WK), Route [Inhibitor]: DERMAL, Species: MOUSE, Strain/Sex: SENCAR/FEMALE, Target Tissue: Type of Lesion: SKIN: PAPILLOMA, Dose [Carcinogen]: 200 NMOL IN 0.2 ML ACETONE APPLIED TO BACK ONCE., Promoter: PHORBOLMYRISTATE ACETATE, 16561-29-8); 100%, 59%, 41%, not calculated (Carcinogen: BENZO[A]PYRENE, 50-32-8, 22000 NMOL IN 0.2 ML ACETONE APPLIED TO BACK ONCE 5 MIN PRIOR TO CARCINOGEN DOSE (STUDY DURATION: 26 WK), Route [Inhibitor]: DERMAL, Species: MOUSE, Strain/Sex: SENCAR/FEMALE, Target Tissue: Type of Lesion: SKIN: PAPILLOMA, Dose [Carcinogen]: 200 NMOL IN 0.2 ML ACETONE APPLIED TO BACK ONCE.); 75%, 59%, 21%, not calculated (Carcinogen: BENZO[A]PYRENE, 50-32-8, 44000 NMOL IN 0.2 ML ACETONE APPLIED TO BACK ONCE 5 MIN PRIOR TO CARCINOGEN DOSE (STUDY DURATION: 20 WK), Route [Inhibitor]: DERMAL, Species: MOUSE, Strain/Sex: SENCAR/FEMALE, Target Tissue: Type of Lesion: SKIN: PAPILLOMA, Dose [Carcinogen]: 200 NMOL IN 0.2 ML ACETONE APPLIED TO BACK ONCE); 100%, 38%, 62%, not calculated (Carcinogen: BENZO[A]PYRENE, 50-32-8, 44000 NMOL IN 0.2 ML ACETONE APPLIED TO BACK ONCE 5 MIN PRIOR TO CARCINOGEN DOSE (STUDY DURATION: 26 WK), Route [Inhibitor]: DERMAL, Species: MOUSE, Strain/Sex: SENCAR/FEMALE, Target Tissue: Type of Lesion: SKIN: PAPILLOMA, Dose [Carcinogen]: 200 NMOL IN 0.2 ML ACETONE APPLIED TO BACK ONCE.); 78%, 79%, -1%, not calculated (Carcinogen: N-METHYL-N'-NITRO-N-NITROSOGUANIDINE, 70-25-7, 22000 NMOL IN 0.2 ML ACETONE APPLIED TO BACK ONCE 5 MIN PRIOR TO CARCINOGEN DOSE (STUDY DURATION: 20 WK), Route [Inhibitor]: DERMAL, Species: MOUSE, Strain/Sex: SENCAR/FEMALE, Target Tissue: Type of Lesion: SKIN: PAPILLOMA, Dose [Carcinogen]: 2500 NMOL IN 0.2 ML ACETONE APPLIED TO BACK ONCE.).

For `Oc1ccc(C2=Cc3ccc(O)cc3OC2)cc1`, the “tumour outcome (control, treated, inhibition, significance)” value is, setting by setting: (Carcinogen: 7,12-DIMETHYLBENZ[A]ANTHRACENE, 57-97-6, 50 MG/KG IN DIET FOR 117 D (STUDY DURATION: 117 D), Route [Inhibitor]: ORAL, Species: RAT, Strain/Sex: SPRAGUE-DAWLEY/FEMALE, Target Tissue: Type of Lesion: MAMMARY GLAND: TUMOR, Dose [Carcinogen]: 15 MG IN SESAME OIL, ONCE, 7 D AFTER FIRST INHIBITOR DOSE) 15/16 (94.7%), 12/18 (65%), 31.4%, p< 0.05; (Carcinogen: 7,12-DIMETHYLBENZ[A]ANTHRACENE, 57-97-6, 75 MG/KG IN DIET FOR 117 D (STUDY DURATION: 117 D), Route [Inhibitor]: ORAL, Species: RAT, Strain/Sex: SPRAGUE-DAWLEY/FEMALE, Target Tissue: Type of Lesion: MAMMARY GLAND: TUMOR, Dose [Carcinogen]: 15 MG IN SESAME OIL, ONCE, 7 D AFTER FIRST INHIBITOR DOSE) 15/16 (94.7%), 12/17 (70%), 26.1%, p< 0.05.
